Measurements: US7592364B2, “Substituted gamma lactams as therapeutic agents” (Allergan, Inc., priority 2006, dated 2009)

What was measured:
[1] = biological target: T1, hEP2/Gqs5 (Homo sapiens, UniProt P43116); assay: EP2 FLIPR calcium signal study; type: cell-based; conditions: HEK-293(EBNA) cells expressing hEP2/Gqs5; unit inferred
T1 construct: expressed in transfected cells; host or cells: HEK-293(EBNA)
Description: (§1) Methods for FLIPR™ Studies
(§2) HEK-293(EBNA) cells, stably expressing one type or subtype of recombinant human prostaglandin receptors (prostaglandin receptors expressed: hDP/Gqs5; hEP1; hEP2/Gqs5; hEP3A/Gqi5; hEP4/Gqs5; hFP; hIP; hTP), were cultured in 100 mm culture dishes in high-glucose DMEM medium containing 10% fetal bovine serum, 2 mM 1-glutamine, 250 μg/ml geneticin (G418) and 200 μg/ml hygromycin B as selection markers, and 100 units/ml penicillin G, 100 μg/ml streptomycin and 0.25 μg/ml amphotericin B.
(§3) (b) Calcium Signal Studies on The FLIPR™
(§4) Cells were seeded at a density of 5×10^4 cells per well in Biocoat® Poly-D-lysine-coated black-wall, clear-bottom 96-well plates (Becton-Dickinson) and allowed to attach overnight in an incubator at 37° C. Cells were then washed two times with HBSS-HEPES buffer (Hanks Balanced Salt Solution without bicarbonate and phenol red, 20 mM HEPES, pH 7.4) using a Denley Cellwash plate washer (Labsystems). After 45 minutes of dye-loading in the dark, using the calcium-sensitive dye Fluo-4 […] at a final concentration of 2 μM, plates were washed four times with HBSS-HEPES buffer to remove excess dye leaving 100 μl in each well. Plates were re-equilibrated to 37° C. for a few minutes.
(§5) Cells were excited with an Argon laser at 488 nm, and emission was measured through a 510-570 nm bandwidth emission filter (FLIPR™, Molecular Devices, Sunnyvale, Calif.). Drug solution was added in a 50 μl volume to each well to give the desired final concentration. The peak increase in fluorescence intensity was recorded for each well. On each plate, four wells each served as negative (HBSS-HEPES buffer) and positive controls (standard agonists: BW245C (hDP); PGE2 (hEP1; hEP2/Gqs5; hEP3A/Gqi5; hEP4/Gqs5); PGF2α (hFP); carbacyclin (hIP); U-46619 (hTP), depending on receptor). The peak fluorescence change in each drug-containing well was then expressed relative to the controls.
(§6) Compounds were tested in a high-throughput (HTS) or concentration-response (CoRe) format. In the HTS format, forty-four compounds per plate were examined in duplicates at a concentration of 10^−5 M. To generate concentration-response curves, four compounds per plate were tested in duplicates in a concentration range between 10^−5 and 10^−11 M. The duplicate values were averaged. In either, HTS or CoRe format each compound was tested on at least 3 separate plates using cells from different passages to give an n>3.

[2] = biological target: T2, EP2 (Homo sapiens, UniProt P43116); assay: EP2 cAMP assay; type: cell-based; conditions: unit inferred
T2 sequence (P43116 whole entry): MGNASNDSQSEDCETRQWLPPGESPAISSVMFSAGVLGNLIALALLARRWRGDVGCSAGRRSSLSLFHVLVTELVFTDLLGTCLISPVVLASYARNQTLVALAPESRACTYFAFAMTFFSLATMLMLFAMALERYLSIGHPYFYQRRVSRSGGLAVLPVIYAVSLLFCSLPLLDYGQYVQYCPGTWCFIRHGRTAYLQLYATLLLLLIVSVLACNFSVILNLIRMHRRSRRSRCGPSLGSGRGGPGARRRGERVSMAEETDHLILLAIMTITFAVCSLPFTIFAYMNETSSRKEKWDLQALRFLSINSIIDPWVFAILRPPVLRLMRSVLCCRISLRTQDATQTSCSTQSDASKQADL

[3] = biological target: T3, EP4 receptors (Homo sapiens, UniProt P35408); assay: EP4 radioligand binding (Ki) vs [3H]PGE2; conditions: unit inferred
T3 construct: expressed in transfected cells; host or cells: HEK-293
T3 sequence (P35408 whole entry): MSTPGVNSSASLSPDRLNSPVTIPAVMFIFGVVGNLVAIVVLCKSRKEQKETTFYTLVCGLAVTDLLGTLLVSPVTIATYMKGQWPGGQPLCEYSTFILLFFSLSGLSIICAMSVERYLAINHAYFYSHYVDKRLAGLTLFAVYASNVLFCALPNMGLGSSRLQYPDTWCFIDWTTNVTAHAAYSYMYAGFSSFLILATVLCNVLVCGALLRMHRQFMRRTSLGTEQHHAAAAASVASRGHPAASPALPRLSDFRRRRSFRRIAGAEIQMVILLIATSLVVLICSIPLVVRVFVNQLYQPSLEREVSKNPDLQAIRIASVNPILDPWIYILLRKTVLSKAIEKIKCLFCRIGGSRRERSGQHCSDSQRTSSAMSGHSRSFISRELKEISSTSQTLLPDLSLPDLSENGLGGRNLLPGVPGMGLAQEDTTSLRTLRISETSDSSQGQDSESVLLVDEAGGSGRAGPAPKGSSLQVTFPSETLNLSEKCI
Description: (§7) Cells Stably Expressing EP1, EP2, EP4 and FP Receptors
(§8) HEK-293 cells stably expressing the human or feline FP receptor, or EP1, EP2, or EP4 receptors were washed with TME buffer, scraped from the bottom of the flasks, and homogenized for 30 sec using a Brinkman PT 10/35 polytron. TME buffer was added to achieve a final 40 ml volume in the centrifuge tubes (the composition of TME is 100 mM TRIS base, 20 mM MgCl2, […]; 10N HCl is added to achieve a pH of 7.4).
(§9) The cell homogenate was centrifuged at 19000 r.p.m. for 20 min at 4° C. using a Beckman Ti-60 rotor. The resultant pellet was resuspended in TME buffer to give a final 1 mg/ml protein concentration, as determined by Biorad assay. Radioligand binding competition assays vs. [^3H-]17-phenyl PGF2α (5 nM) were performed in a […] volume for 60 min. Binding reactions were started by adding plasma membrane fraction. The reaction was terminated by the addition of 4 ml ice-cold TRIS-HCl buffer and rapid filtration through glass fiber GF/B filters using a Brandel cell harvester. The filters were washed 3 times with ice-cold buffer and oven dried for one hour.
(§10) [^3H-] PGE2 (specific activity 180 Ci mmol) was used as the radioligand for EP receptors. [^3H] 17-phenyl PGF2, was employed for FP receptor binding studies. Binding studies employing EP1, EP2, EP4 and FP receptors were performed in duplicate in at least three separate experiments. A 200 μl assay volume was used. Incubations were for 60 min at 25° C. and were terminated by the addition of 4 ml of ice-cold 50 mM TRIS-HCl, followed by rapid filtration through Whatman GF/B filters and three additional 4 ml washes in a cell harvester (Brandel). Competition studies were performed using a final concentration of 5 nM [^3H]-PGE2, or 5 nM [^3H] 17-phenyl PGF2, and non-specific binding determined with 10^−5M of unlabeled PGE2, or 17-phenyl PGF2α, according to receptor subtype studied.

[4] = biological target: T2, EP2; assay: EP2 competition binding (Ki) vs [3H]PGE2; parameters: expressed in transfected cells; host or cells: HEK 293; conditions: HEK 293 cells stably expressing human EP2, [3H]PGE2; unit inferred
Description: Competition binding experiments were performed in a medium containing Hank's balanced salt solution, Hepes 20 mM, pH 7.3, membranes (˜60 μg protein) or 2×10^5 cells from HEK 293 cells stably expressing human EP2 receptors, [^3H]PGE2 (10 nM) and various concentrations of test compounds in a total volume of 300 μl. Reaction mixtures were incubated at 23° C. for 60 min, and were filtered over Whatman GF/B filters under vacuum. Filters were washed three times with 5 ml ice-cold buffer containing 50 mM Tris/HCl (pH 7.3). Non-specific binding was estimated in the presence of excess unlabeled PGE2 (10 μM). Binding data fitted to the binding model for a single class of binding sites, using nonlinear regression analysis. IC50 values thus obtained were converted to Ki using the equation of Ki=(IC50/(1+[L]/KD) where [L] represents PGE2 concentration (10 nM) and KD the dissociation constant for [^3H]PGE2 at human EP2 receptors (40 nM).
as §7, §8, §9, §10

[5] = biological target: T4, hDP/Gqs5 (Homo sapiens, UniProt Q13258); assay: hDP FLIPR calcium signal study; type: cell-based; conditions: HEK-293(EBNA) cells expressing hDP/Gqs5; read-out: Other Receptors (EC50 in nM) hDP
T4 construct: expressed in transfected cells; host or cells: HEK-293(EBNA)
T4 sequence (Q13258 1-359): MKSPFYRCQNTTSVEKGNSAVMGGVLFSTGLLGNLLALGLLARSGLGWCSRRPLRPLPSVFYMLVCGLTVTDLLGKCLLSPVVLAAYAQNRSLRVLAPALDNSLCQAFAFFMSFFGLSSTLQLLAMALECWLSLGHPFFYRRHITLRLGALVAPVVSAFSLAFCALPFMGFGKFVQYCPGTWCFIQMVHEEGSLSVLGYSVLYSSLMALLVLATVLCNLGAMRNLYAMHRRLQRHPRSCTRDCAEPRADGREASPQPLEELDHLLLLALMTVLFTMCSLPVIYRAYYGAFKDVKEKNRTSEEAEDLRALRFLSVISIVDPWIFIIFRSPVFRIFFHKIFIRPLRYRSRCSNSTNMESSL
Description: as §1, §2, §3, §4, §5, §6

[6] = biological target: T5, hEP4/Gqs5 (Homo sapiens, UniProt P35408); assay: EP4 FLIPR calcium signal study; type: cell-based; conditions: HEK-293(EBNA) cells expressing hEP4/Gqs5; unit inferred
T5 construct: expressed in transfected cells; host or cells: HEK-293(EBNA)
T5 sequence (P35408 whole entry): as the sequence (P35408 whole entry) above
Description: as §1, §2, §3
(§11) Cells were seeded at a density of 5×10^4 cells per well in Biocoat® Poly-D-lysine-coated black-wall, clear-bottom 96-well plates (Becton-Dickinson) and allowed to attach overnight in an incubator at 37° C. Cells were then washed two times with HBSS-HEPES buffer (Hanks Balanced Salt Solution without bicarbonate and phenol red, 20 mM HEPES, pH 7.4) using a Denley Cellwash plate washer (Labsystems). […]
(§12) Cells were excited with an Argon laser at 488 nm, and emission was measured through a 510-570 nm bandwidth emission filter (FLIPR™, Molecular Devices, Sunnyvale, Calif.). […] The peak increase in fluorescence intensity was recorded for each well. […] The peak fluorescence change in each drug-containing well was then expressed relative to the controls. […]

[7] = biological target: T6, hEP3A/Gqi5 (Homo sapiens, UniProt P43115); assay: hEP3A FLIPR calcium signal study; type: cell-based; conditions: HEK-293(EBNA) cells expressing hEP3A/Gqi5; read-out: Other Receptors (EC50 in nM) hEP3A
T6 construct: expressed in transfected cells; host or cells: HEK-293(EBNA)
T6 sequence (P43115 1-390): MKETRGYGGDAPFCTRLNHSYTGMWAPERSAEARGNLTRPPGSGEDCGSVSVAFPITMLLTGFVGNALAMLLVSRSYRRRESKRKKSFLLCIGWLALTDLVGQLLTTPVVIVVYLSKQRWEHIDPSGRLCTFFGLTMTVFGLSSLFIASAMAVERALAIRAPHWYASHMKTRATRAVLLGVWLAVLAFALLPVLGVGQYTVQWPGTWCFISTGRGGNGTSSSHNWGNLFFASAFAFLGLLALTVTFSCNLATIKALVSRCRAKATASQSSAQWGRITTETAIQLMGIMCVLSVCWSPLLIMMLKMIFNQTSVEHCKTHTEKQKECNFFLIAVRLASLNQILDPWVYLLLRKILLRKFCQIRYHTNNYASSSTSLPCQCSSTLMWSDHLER
Description: as §1, §2, §3, §11, §12

T1 sequence (P43116 whole entry): as the sequence (P43116 whole entry) above

| Compound | EC50 [1] | EC50 [2] | Ki [3] | Ki [4] | EC50 [5] | EC50 [6] | EC50 [7] |
| --- | --- | --- | --- | --- | --- | --- | --- |
| CCCCCC(O)c1ccc(N2C(=O)CC[C@@H]2COCc2cccc(C(=O)O)c2)cc1 (mixture of isomers) [Example 11, 3-{(R)-1-[4-(1-Hydroxy-hexyl)-phenyl]-5-oxo-pyrrolidin-2-ylmethoxymethyl}-benzoic acid] | > 10000 nM | 517 nM | > 10 µM |  |  |  |  |
| CCCCC(O)c1ccc(N2C(=O)CC[C@@H]2COCc2ccc(C(=O)O)s2)cc1 (mixture of isomers) [Example 12, 5-{(R)-1-[4-(1-Hydroxy-pentyl)-phenyl]-5-oxo-pyrrolidin-2-ylmethoxymethyl}-thiophene-2-carboxylic acid] | 212 nM | 8 nM | > 10 µM | 387 nM |  |  |  |
| CCCCCCC(O)c1ccc(N2C(=O)CC[C@@H]2COCc2ccc(C(=O)O)s2)cc1 (mixture of isomers) [Example 13, 5-{(R)-1-[4-(1-Hydroxy-heptyl)-phenyl]-5-oxo-pyrrolidin-2-ylmethoxymethyl}-thiophene-2-carboxylic acid] | 20 nM | 1.5 nM | > 10 µM | 190 nM | 5760 nM |  |  |
| CCCC(O)c1ccc(N2C(=O)CC[C@@H]2COCc2ccc(C(=O)O)s2)cc1 (mixture of isomers) [Example 14, 5-{(R)-1-[4-(1-Hydroxy-butyl)-phenyl]-5-oxo-pyrrolidin-2-ylmethoxymethyl}-thiophene-2-carboxylic acid] | 426 nM | 27 nM | > 10 µM | 1640 nM |  |  |  |
| CCC(O)c1ccc(N2C(=O)CC[C@@H]2COCc2ccc(C(=O)O)s2)cc1 (mixture of isomers) [Example 15, 5-{(R)-1-[4-(1-Hydroxy-propyl)-phenyl]-5-oxo-pyrrolidin-2-ylmethoxymethyl}-thiophene-2-carboxylic acid] | 1810 nM | 312 nM | > 10 µM | 5730 nM | 7560 nM | > 10 µM |  |
| CCCCCC(O)c1ccc(N2C(=O)CC[C@@H]2CCCc2ccc(C(=O)O)s2)cc1 (mixture of isomers) [Example 17, 5-(3-{(S)-1-[4-(1-Hydroxy-hexyl)-phenyl]-5-oxo-pyrrolidin-2-yl}-propyl)-thiophene-2-carboxylic acid] | 5 nM | 0.55 nM | > 10 µM | 23 nM | 1230 nM |  | 155 nM |
| CCCCCCC(O)c1ccc(N2C(=O)CC[C@@H]2CCCc2ccc(C(=O)O)s2)cc1 (mixture of isomers) [Example 36, 5-(3-{(S)-1-[4-(1-Hydroxy-heptyl)-phenyl]-5-oxo-pyrrolidin-2-yl}-propyl)-thiophene-2-carboxylic acid] | 30 nM |  |  |  | 105 nM | > 10 µM | 47 nM |
| CCCCCC(O)c1ccc(N2C(=O)CC[C@@H]2COc2ccc(C(=O)O)cc2)cc1 (mixture of isomers) [Example 43, 4-{(R)-1-[4-(1-Hydroxy-hexyl)-phenyl]-5-oxo-pyrrolidin-2-ylmethoxy}-benzoic acid] | 7280 nM |  | 8.75 µM | 22700 nM |  |  |  |
| CCCCC[C@@H](O)c1ccc(N2C(=O)CC[C@@H]2/C=C/Cc2ccc(C(=O)O)s2)cc1 (racemic) [Example 16, 5-((E and Z)-3-{(R)-1-[4-(1-Hydroxy-hexyl)-phenyl]-5-oxo-pyrrolidin-2-yl}-allyl)-thiophene-2-carboxylic acid] | 226 nM | 15 nM | > 10 µM | 1380 nM |  |  |  |
